In patent US11286228B2, “Stilbene derivative and method for preparing same” (Ozchela Inc., priority 2016, dated 2022):

These molecules were tested on mitochondria obtained from hepatocytes (assay: Inhibitory activity on calcium-induced mitochondrial swelling (absorbance 520 nm)). Conditions: Hepatocyte; calcium-induced swelling of extracted mitochondria; read-out: Test Example 4: inhibiting mitochondrial swelling (IC50).
Description: Cyclophilin is a key protein for forming permeability transition pores (PTP) in mitochondria. When permeability transition pores are formed, mitochondria swell, whereby the outer membrane thereof ruptures and thus cell death progresses. Such mitochondrial dysfunction causes many diseases including neurodegenerative diseases, cancer, and the like. Cyclosporine, a known cyclophilin inhibitor, is capable of preventing the formation of permeability transition pores to thus suppress mitochondrial swelling.
The mitochondrial swelling test was performed as follows. Specifically, the hepatocytes were disrupted using a Dounce tissue grinder. The disrupted cells were centrifuged at 700×g for 10 min and the supernatant was transferred into a new tube. The supernatant was centrifuged at 12,000×g for 15 min, thereby obtaining mitochondria.
When the extracted mitochondria were added with calcium, they swelled, which may be observed by measuring the absorbance at 520 nm. The stilbene derivatives are effective at inhibiting mitochondrial swelling due to calcium.
The activity of Compounds 1 to 155 of Tables 1 to 10 on inhibiting mitochondrial swelling may be determined based on IC50 values, and may be grouped as follows: […]

SMILES	IC50
N#CC(=Cc1ccccc1CCc1ccc(N)cc1)c1ccc([N+](=O)[O-])cc1 [Compound 53]	5 to 50 µM
CC(C)(C)Cc1ccc(C(C#N)=Cc2ccccc2C(=O)O)cc1 [Compound 54]	< 5 µM
CC(C)C(C)c1ccc(C(C#N)=Cc2ccccc2C(=O)O)cc1 (stereo not drawn) [Compound 55]	5 to 50 µM
CC(c1ccc(C(C#N)=Cc2ccccc2C(=O)O)cc1)C(C)(C)C (stereo not drawn) [Compound 56]	5 to 50 µM
CC(C)(C)CCc1ccc(C(C#N)=Cc2ccccc2C(=O)O)cc1 [Compound 57]	< 5 µM
CC(C)C(C)Cc1ccc(C(C#N)=Cc2ccccc2C(=O)O)cc1 (stereo not drawn) [Compound 58]	5 to 50 µM
N#CC(=Cc1ccccc1C(=O)O)c1ccc(CC2CCCCC2)cc1 [Compound 59]	< 5 µM
N#CC(=Cc1ccccc1C(=O)O)c1ccc(CCC2CCCCC2)cc1 [Compound 60]	< 5 µM
N#CC(=Cc1ccccc1C(=O)O)c1ccc(CC2CC2)cc1 [Compound 61]	< 5 µM
N#CC(=Cc1ccccc1C(=O)O)c1ccc(CCC2CC2)cc1 [Compound 62]	< 5 µM
CC(C)(Cc1ccc(C(C#N)=Cc2ccccc2C(=O)O)cc1)CC1CC1 [Compound 63]	5 to 50 µM
CCCCOC(=O)c1ccccc1C=Cc1ccc(CC(C)(C)C)cc1C [Compound 67]	5 to 50 µM
CCCCOC(=O)c1ccccc1C=Cc1ccc(CC(C)(C)C)cc1CC [Compound 68]	5 to 50 µM
CCCCOC(=O)c1cc(C)ccc1C=Cc1ccc(CC(C)(C)C)cc1 [Compound 69]	5 to 50 µM
CCCCOC(=O)c1c(C=Cc2ccc(CC(C)(C)C)cc2)ccc(C)c1C [Compound 70]	5 to 50 µM
CCCOC(=O)c1ccccc1C=Cc1ccc(CC(C)(C)C)cc1 [Compound 71]	< 5 µM
CC(C)OC(=O)c1ccccc1C=Cc1ccc(CC(C)(C)C)cc1 [Compound 73]	< 5 µM
CC(C)(C)Cc1ccc(C=Cc2ccccc2C(=O)OCC2CCCCC2)cc1 [Compound 74]	< 5 µM
CC(C)(C)Cc1ccc(C=Cc2ccccc2C(=O)OCC2CCCCN2)cc1 (stereo not drawn) [Compound 75]	5 to 50 µM
CC(C)(C)Cc1ccc(C=Cc2ccccc2C(=O)OCc2ccccc2)cc1 [Compound 76]	< 5 µM
CC(C)(C)Cc1ccc(C=Cc2ccccc2C(=O)OC2CCCCC2)cc1 [Compound 77]	5 to 50 µM
CCCCOC(=O)c1ccccc1C=Cc1ccc(CC(C)CC)cc1 (stereo not drawn) [Compound 78]	5 to 50 µM
CCCCOC(=O)c1ccccc1C=Cc1ccc(CC2CCCC2)cc1 [Compound 79]	5 to 50 µM
CCCCOC(=O)c1ccccc1C=Cc1ccc(Cc2ccccc2)cc1 [Compound 81]	5 to 50 µM
CCCCOC(=O)c1ccccc1C=C(C)c1ccc(CC(C)(C)C)cc1 [Compound 82]	5 to 50 µM

Same assay, conditions: calcium-induced swelling of extracted mitochondria; read-out: Test Example 4: inhibiting mitochondrial swelling (IC50)

SMILES	IC50
CCCCCOC(=O)c1ccccc1C=Cc1ccc(CC(C)(C)C)cc1 [Compound 72]	< 5 µM

These molecules were tested on hepatitis C virus (assay: Antiviral activity in HCV replicon cells (Renilla luciferase)). Conditions: HCV replicon cells, 72 hr, Renilla luciferase, relative to DMSO; read-out: Test Example 3: antiviral activity (EC50).
Type: cell-based
Experimental: The antiviral activity of the stilbene derivatives on hepatitis C virus was measured. The replicon cells that stably replicate the hepatitis C virus genome were attached to a culture plate and cultured in a CO2 incubator at 37° C. for 24 hr. The replicon cells cultured for one day were washed with a PBS solution, treated with the compounds of the present invention, and then cultured for 72 hr. The stilbene derivative-treated replicon cells were washed with a cold PBS solution and added with 20 μL of a cell lysis solution so that the cells were lysed in ice for 20 min. 100 μL of a Renilla luciferase substrate was added thereto, after which the luminescence thereof was measured and thus the amount of the hepatitis C virus genome was estimated. The amount of the hepatitis C virus genome in the stilbene derivative-treated replicon cells according to the present invention relative to the amount of the hepatitis C virus genome in dimethylsulfoxide (DMSO)-treated replicon cells is shown.
Compounds 1 to 155 of Tables 1 to 10 may be grouped as follows based on the antiviral activity (EC50) values: […]

SMILES	EC50
CCCCCOC(=O)c1ccccc1C=Cc1ccc(CC(C)(C)C)cc1 [Compound 72]	< 0.5 µM

Same assay, conditions: Hepatitis C virus, 72 h, read-out: Test Example 3: antiviral activity (EC50)

SMILES	EC50
CC(C)C(C)Cc1ccc(C(C#N)=Cc2ccccc2C(=O)O)cc1 (stereo not drawn) [Compound 58]	0.5 to 5 µM
CCCCOC(=O)c1ccccc1C=Cc1ccc(Cc2ccccc2)cc1 [Compound 81]	0.5 to 5 µM

Same assay, conditions: Hepatitis C virus; HCV replicon cells, 72 hr, Renilla luciferase, relative to DMSO; read-out: Test Example 3: antiviral activity (EC50)

SMILES	EC50
N#CC(=Cc1ccccc1CCc1ccc(N)cc1)c1ccc([N+](=O)[O-])cc1 [Compound 53]	0.5 to 5 µM
CC(C)(C)Cc1ccc(C(C#N)=Cc2ccccc2C(=O)O)cc1 [Compound 54]	< 0.5 µM
CC(C)C(C)c1ccc(C(C#N)=Cc2ccccc2C(=O)O)cc1 (stereo not drawn) [Compound 55]	0.5 to 5 µM
CC(c1ccc(C(C#N)=Cc2ccccc2C(=O)O)cc1)C(C)(C)C (stereo not drawn) [Compound 56]	0.5 to 5 µM
CC(C)(C)CCc1ccc(C(C#N)=Cc2ccccc2C(=O)O)cc1 [Compound 57]	< 0.5 µM
N#CC(=Cc1ccccc1C(=O)O)c1ccc(CC2CCCCC2)cc1 [Compound 59]	< 0.5 µM
N#CC(=Cc1ccccc1C(=O)O)c1ccc(CCC2CCCCC2)cc1 [Compound 60]	< 0.5 µM
N#CC(=Cc1ccccc1C(=O)O)c1ccc(CC2CC2)cc1 [Compound 61]	< 0.5 µM
N#CC(=Cc1ccccc1C(=O)O)c1ccc(CCC2CC2)cc1 [Compound 62]	< 0.5 µM
CC(C)(Cc1ccc(C(C#N)=Cc2ccccc2C(=O)O)cc1)CC1CC1 [Compound 63]	0.5 to 5 µM
CCCCOC(=O)c1ccccc1C=Cc1ccc(CC(C)(C)C)cc1C [Compound 67]	0.5 to 5 µM
CCCCOC(=O)c1ccccc1C=Cc1ccc(CC(C)(C)C)cc1CC [Compound 68]	0.5 to 5 µM
CCCCOC(=O)c1cc(C)ccc1C=Cc1ccc(CC(C)(C)C)cc1 [Compound 69]	0.5 to 5 µM
CCCCOC(=O)c1c(C=Cc2ccc(CC(C)(C)C)cc2)ccc(C)c1C [Compound 70]	0.5 to 5 µM
CCCOC(=O)c1ccccc1C=Cc1ccc(CC(C)(C)C)cc1 [Compound 71]	< 0.5 µM
CC(C)OC(=O)c1ccccc1C=Cc1ccc(CC(C)(C)C)cc1 [Compound 73]	< 0.5 µM
CC(C)(C)Cc1ccc(C=Cc2ccccc2C(=O)OCC2CCCCC2)cc1 [Compound 74]	< 0.5 µM
CC(C)(C)Cc1ccc(C=Cc2ccccc2C(=O)OCC2CCCCN2)cc1 (stereo not drawn) [Compound 75]	0.5 to 5 µM
CC(C)(C)Cc1ccc(C=Cc2ccccc2C(=O)OCc2ccccc2)cc1 [Compound 76]	< 0.5 µM
CC(C)(C)Cc1ccc(C=Cc2ccccc2C(=O)OC2CCCCC2)cc1 [Compound 77]	0.5 to 5 µM
CCCCOC(=O)c1ccccc1C=Cc1ccc(CC(C)CC)cc1 (stereo not drawn) [Compound 78]	0.5 to 5 µM
CCCCOC(=O)c1ccccc1C=Cc1ccc(CC2CCCC2)cc1 [Compound 79]	0.5 to 5 µM
CCCCOC(=O)c1ccccc1C=C(C)c1ccc(CC(C)(C)C)cc1 [Compound 82]	0.5 to 5 µM

The molecules below were run against cyclophilin (assay: Cis-trans isomerase inhibitory activity (chymotrypsin-coupled Suc-AAPF-pNA cleavage, absorbance 390 nm)). Conditions: cyclophilin, chymotrypsin, Suc-AAPF-pNA; read-out: Test Example 1: cis-trans isomerase inhibitory activity (IC50).
Type: biochemical
Description: Chymotrypsin cleaves a trans-type alanine-proline peptide bond. When Suc-AAPF-pNA (a peptide substrate) and chymotrypsin are mixed, the trans-type peptide substrate is cleaved and the cis-type peptide substrate remains. The remaining cis-type peptide substrate is converted into a trans form by a cis-trans isomerase and is then cleaved again by chymotrypsin. When the cis-trans isomerase is present, chymotrypsin is able to cleave a larger amount of trans-type peptide substrate within a predetermined period of time, from which the activity of the cis-trans isomerase may be determined. The amount of the cleaved trans-type peptide substrate is measured using absorbance at 390 nm. Cyclophilin has cis-trans isomerase activity, and accelerates the cleavage of trans-type peptide substrate by chymotrypsin. When the stilbene derivatives of the present invention were treated together with cyclophilin, the cleavage of the peptide substrate by chymotrypsin was not observed to accelerate. Thereby, the stilbene derivatives of the invention can be concluded to inhibit the activity of cyclophilin.

SMILES	IC50
N#CC(=Cc1ccccc1CCc1ccc(N)cc1)c1ccc([N+](=O)[O-])cc1 [Compound 53]	0.02 to 0.2 µM
CC(C)(C)Cc1ccc(C(C#N)=Cc2ccccc2C(=O)O)cc1 [Compound 54]	≤ 0.02 µM
CC(C)C(C)c1ccc(C(C#N)=Cc2ccccc2C(=O)O)cc1 (stereo not drawn) [Compound 55]	0.02 to 0.2 µM
CC(c1ccc(C(C#N)=Cc2ccccc2C(=O)O)cc1)C(C)(C)C (stereo not drawn) [Compound 56]	0.02 to 0.2 µM
CC(C)(C)CCc1ccc(C(C#N)=Cc2ccccc2C(=O)O)cc1 [Compound 57]	≤ 0.02 µM
CC(C)C(C)Cc1ccc(C(C#N)=Cc2ccccc2C(=O)O)cc1 (stereo not drawn) [Compound 58]	0.02 to 0.2 µM
N#CC(=Cc1ccccc1C(=O)O)c1ccc(CC2CCCCC2)cc1 [Compound 59]	≤ 0.02 µM
N#CC(=Cc1ccccc1C(=O)O)c1ccc(CCC2CCCCC2)cc1 [Compound 60]	≤ 0.02 µM
N#CC(=Cc1ccccc1C(=O)O)c1ccc(CC2CC2)cc1 [Compound 61]	≤ 0.02 µM
N#CC(=Cc1ccccc1C(=O)O)c1ccc(CCC2CC2)cc1 [Compound 62]	≤ 0.02 µM
CC(C)(Cc1ccc(C(C#N)=Cc2ccccc2C(=O)O)cc1)CC1CC1 [Compound 63]	0.02 to 0.2 µM
CCCCOC(=O)c1ccccc1C=Cc1ccc(CC(C)(C)C)cc1C [Compound 67]	0.02 to 0.2 µM
CCCCOC(=O)c1ccccc1C=Cc1ccc(CC(C)(C)C)cc1CC [Compound 68]	0.02 to 0.2 µM
CCCCOC(=O)c1cc(C)ccc1C=Cc1ccc(CC(C)(C)C)cc1 [Compound 69]	0.02 to 0.2 µM
CCCCOC(=O)c1c(C=Cc2ccc(CC(C)(C)C)cc2)ccc(C)c1C [Compound 70]	0.02 to 0.2 µM
CCCOC(=O)c1ccccc1C=Cc1ccc(CC(C)(C)C)cc1 [Compound 71]	≤ 0.02 µM
CCCCCOC(=O)c1ccccc1C=Cc1ccc(CC(C)(C)C)cc1 [Compound 72]	≤ 0.02 µM
CC(C)OC(=O)c1ccccc1C=Cc1ccc(CC(C)(C)C)cc1 [Compound 73]	≤ 0.02 µM
CC(C)(C)Cc1ccc(C=Cc2ccccc2C(=O)OCC2CCCCC2)cc1 [Compound 74]	≤ 0.02 µM
CC(C)(C)Cc1ccc(C=Cc2ccccc2C(=O)OCC2CCCCN2)cc1 (stereo not drawn) [Compound 75]	0.02 to 0.2 µM
CC(C)(C)Cc1ccc(C=Cc2ccccc2C(=O)OCc2ccccc2)cc1 [Compound 76]	≤ 0.02 µM
CC(C)(C)Cc1ccc(C=Cc2ccccc2C(=O)OC2CCCCC2)cc1 [Compound 77]	0.02 to 0.2 µM
CCCCOC(=O)c1ccccc1C=Cc1ccc(CC(C)CC)cc1 (stereo not drawn) [Compound 78]	0.02 to 0.2 µM
CCCCOC(=O)c1ccccc1C=Cc1ccc(CC2CCCC2)cc1 [Compound 79]	0.02 to 0.2 µM
CCCCOC(=O)c1ccccc1C=Cc1ccc(Cc2ccccc2)cc1 [Compound 81]	0.02 to 0.2 µM
CCCCOC(=O)c1ccccc1C=C(C)c1ccc(CC(C)(C)C)cc1 [Compound 82]	0.02 to 0.2 µM
